Data: patent publication US5962487A, “Antipicornaviral compounds and methods for their use and preparation” (Agouron Pharmaceuticals, Inc., priority 1997, dated 1999)

Experiments:
[1] = target: T1, Rhinovirus 3C protease (RVP) serotype-14 (Human rhinovirus 14, UniProt P03303); assay: Inhibition of Rhinovirus Protease, serotype 14 (FRET assay); type: biochemical; details: for kinact/KI: read-out: kobs/I; for Ki / inhibition at 10 µM: RVP serotype-14; for Ki: 10 minute preincubation with 50 nM RVP prior to addition of substrate, read-out: INHIB (Ki); for inhibition at 10 µM: 10 μM compound, 10 minute preincubation with 50 nM RVP, read-out: INHIB (percent inhibition)
T1 construct: Recombinant Rhinovirus 3C proteases from serotypes 14, 16, 2 or 89 were prepared; made in house
T1 sequence (P03303 1538-1719): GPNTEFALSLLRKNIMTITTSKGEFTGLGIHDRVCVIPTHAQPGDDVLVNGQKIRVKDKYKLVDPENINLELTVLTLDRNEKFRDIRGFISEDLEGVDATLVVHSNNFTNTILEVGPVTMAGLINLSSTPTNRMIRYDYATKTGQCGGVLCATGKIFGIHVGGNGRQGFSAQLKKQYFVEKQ
Experimental: (§1) Stock solutions (50 mM, in DMSO) of various compounds were prepared; dilutions were in the same solvent. Recombinant Rhinovirus 3C proteases from serotypes 14, 16, 2 or 89 were prepared by the following standard chromatographic procedures: (1) ion exchange using Q Sepharose Fast Flow from Pharmacia; (2) affinity chromatography using Affi-Gel Blue from Biorad; and (3) sizing using Sephadex G-100 from Pharmacia. Assays contained 2% DMSO, 50 mM tris pH 7.6, 1 mM EDTA, a compound at the indicated concentrations, approximately 1 μM substrate, and 50-100 nM protease. For Ki determinations, the compound and the enzyme were preincubated for 10 minutes at 30° C. prior to addition of the substrate (substrate start). The kobs/I values were obtained from reactions initiated by addition of enzyme rather than substrate. RVP activity is measured in the fluorescence resonance energy transfer assay. The substrate was (N-terminal) DABCYL-(Gly-Arg-Ala-Val-Phe-Gln-Gly-Pro-Val-Gly)-EDANS. In the uncleaved peptide, the EDANS fluorescence was quenched by the proximal DABCYL moiety. When the peptide was cleaved, the quenching was relieved, and activity was measured as an increase in fluorescence signal.
(§2) In the above table, all data is for RVP serotype-14 unless otherwise noted in parentheses. All strains of human rhinovirus (HRV) were purchased from American Type Culture Collection (ATCC), except for serotype 14, which was produced from the infectious cDNA clone constructed and supplied to us by Dr. Roland Rueckert at the Institute for Molecular Virology, University of Wisconsin, Madison, Wis. The column designated INHIB represents the percent inhibition, with the concentration of the compound in μM indicated in parentheses, unless Ki was assigned as designated by (Ki), at 10 minute preincubation with 50 nM RVP prior to addition of substrate was used. The data in the column designated kobs/I was measured from progress curves in enzyme start experiments.

[2] = target: T2, Rhinovirus 3C protease (RVP) serotype 2 (Human rhinovirus 2, UniProt P04936); assay: Inhibition of Rhinovirus Protease, serotype 2 (FRET assay); type: biochemical; details: enzyme start experiments, read-out: kobs/I
T2 construct: Recombinant Rhinovirus 3C proteases from serotypes 14, 16, 2 or 89 were prepared; made in house
T2 sequence (P04936 1508-1690): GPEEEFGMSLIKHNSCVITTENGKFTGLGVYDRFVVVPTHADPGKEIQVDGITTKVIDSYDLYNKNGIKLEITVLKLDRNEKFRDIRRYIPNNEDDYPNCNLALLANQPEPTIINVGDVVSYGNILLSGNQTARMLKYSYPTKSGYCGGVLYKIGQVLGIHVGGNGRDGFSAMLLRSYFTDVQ
Experimental: as §1, §2

[3] = target: T3, Rhinovirus 3C protease (RVP) serotype 16 (Human rhinovirus 16, UniProt Q82122); assay: Inhibition of Rhinovirus Protease, serotype 16 (FRET assay); type: biochemical; details: enzyme start experiments, read-out: kobs/I
T3 construct: Recombinant Rhinovirus 3C proteases from serotypes 14, 16, 2 or 89 were prepared; made in house
T3 sequence (Q82122 1511-1693): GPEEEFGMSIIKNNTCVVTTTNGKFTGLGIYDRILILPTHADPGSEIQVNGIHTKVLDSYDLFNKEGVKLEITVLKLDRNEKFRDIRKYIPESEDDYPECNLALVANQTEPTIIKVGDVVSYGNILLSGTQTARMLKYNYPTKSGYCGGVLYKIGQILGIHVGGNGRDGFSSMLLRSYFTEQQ
Experimental: as §1, §2

HRV-14 = assay: Antirhinoviral HI-HeLa Cell Culture Assay (cell protection, XTT), HRV-14; type: cell-based, human rhinovirus; details: for EC50: Rhinovirus B, HRV14, 48 h, HRV serotype-14 infected HI-HeLa cells, XTT, two days; for TI: CC50/EC50, HRV serotype-14, 2880 min
Experimental: In the Cell Protection Assay, the ability of compounds to protect cells against HRV infection was measured by the XTT dye reduction method. This method is described in O. S. Weislow, R. Kiser, D. L. Fine, J. Bader, R. H. Shoemaker, and M. R. Boyd, J. Natl. Cancer Inst. 1989, 81, 577-586, which document is entirely incorporated herein by reference.
(§3) HI-HeLa cells were infected with HRV-14 (unless otherwise noted) at a multiplicity of infection (m.o.i.) of 0.13 (virus particles/cell) or mock-infected with medium only. Infected or mock-infected cells were resuspended at 8×10^5 cells per mL and incubated with appropriate concentrations of compounds of formulas I and II. Two days later, XTT/PMS was added to test plates, and the amount of formazan produced was quantified spectrophotometrically at 450/650 nm. The EC50 was calculated as the concentration of compound that increased the percentage of formazan production in compound-treated, virus-infected cells to 50% of that produced by compound-free mock-infected cells. The 50% cytotoxic dose (CC50) was calculated as the concentration of compound that decreased the percentage of formazan produced in compound-treated, mock-infected cells to 50% of that produced in compound-free, mock-infected cells. The therapeutic index (TI) was calculated by dividing the CC50 by the EC50.
(§4) All strains of human rhinovims (HRV) for use in this assay were purchased from American Type Culture Collection (ATCC), except for HRV serotype-14, which was produced from the infectious cDNA clone, constructed and supplied to us by Dr. Roland Rueckert at the Institute for Molecular Virology, University of Wisconsin, Madison, Wis. HRV stocks were propagated, and antiviral assays were performed in HI-HeLa (ATCC). Cells were grown in Minimal Essential Medium, available from Life Technologies, with 10% fetal bovine serum.
The compounds were tested against control compounds WIN 51711, WIN 52084, and WIN 54954, all obtained from Sterling-Winthrop Pharmaceuticals, and control compound Pirodavir, obtained from Janssen Pharmaceuticals. Antiviral data obtained for the test compounds are shown in Table 2 where all data are for HRV serotype-14 unless otherwise noted in parentheses.

in vitro = type: cell-based; details: human, hi-hela cells
Experimental: as §3, §4

SMILES | kinact/KI [1] [M⁻¹ s⁻¹] | kinact/KI [2] [M⁻¹ s⁻¹] | kinact/KI [3] [M⁻¹ s⁻¹] | EC50 (HRV-14) [µM] | CC50 at 48 h (in vitro) [µM] | Ki [1] [µM] | TI (HRV-14) | inhibition at 10 µM [1] [%]
CCOC(=O)/C=C/[C@H](CCC(N)=O)NC(=O)C1CNCCN1C(=O)[C@H](CC(C)C)NC(=O)OCc1ccccc1 (mixture of isomers) [Compound 27, Ethyl-3-(CBZ-L-Leu-DL-Pipz-L-Gln)-E-Propenoate] | 102 | 87 | 90 | > 320 | > 320 | – | – | –
CCOC(=O)/C=C/[C@H](CCC(N)=O)NC(=O)[C@H](Cc1ccc(OC)cc1)N(C)C(=O)[C@H](CC(C)C)NC(=O)OCc1ccccc1 [Compound 3, Ethyl-3-[CBZ-L-Leu-L-N-Me-(OMe)-Tyr-L-Gln]-E-Propenoate] | 16600 | 292 | 929 | 0.18 | 41.7 | 12 | 232 | –
CCOC(=O)/C=C/[C@H](CCC(N)=O)NC(=O)[C@H](Cc1ccc(C)cc1)N(C)C(=O)[C@H](CCc1ccccc1)NC(=O)SCc1ccccc1 [Compound 13, Ethyl-3-[Benzylthiocarbonyl-L-hPhe-L-N-Me-(4-Me-Phe)-L-Gln] -E-Propenoate] | 356000 | 3980 | 11700 | 0.12 | 17.8 | – | 148 | –
CCOC(=O)/C(C)=C/[C@H](CCC(N)=O)NC(=O)[C@H](Cc1ccc(C)cc1)N(C)C(=O)[C@H](CCc1ccccc1)NC(=O)SCc1ccccc1 [Compound 14, Ethyl-2-Methyl-3-[Benylthiocarbonyl-L-hPhe-L-N-Me-(4-Me)-Phe-L-Gln]-E-Propenoate] | 56400 | 800 | 1800 | 0.32 | 15.8 | 0.8 | 49 | –
CCOC(=O)/C=C/[C@H](CCC(N)=O)NC(=O)[C@H](Cc1ccccc1)N(C)C(=O)[C@H](CC(C)C)NC(=O)SCc1ccccc1 [Compound 15, Ethyl-3-(Benzylthiocarbonyl-L-Leu-L-N-Me-Phe-L-Gln)-E-Propenoate] | 36400 | 3500 | 5600 | 0.26 | 50.1 | 2.5 | 192 | –
CCOC(=O)/C(C)=C/[C@H](CCC(N)=O)NC(=O)[C@H](Cc1ccccc1)N(C)C(=O)[C@H](CC(C)C)NC(=O)SCc1ccccc1 [Compound 16, Ethyl-2-Methyl-3-(Benzylthiocarbonyl-L-Leu-L-N-Me-Phe-L-Gln)-E-Propenoate] | 8300 | 600 | 1000 | 1.7 | 32 | 12 | 19 | –
CCOC(=O)/C=C/[C@H](CCC(N)=O)NC(=O)[C@@H]1CCCN1C(=O)[C@H](CC(C)C)NC(=O)SCC [Compound 24, Ethyl-3-(Ethythiocarbonyl-L-Leu-L-Pro-L-Gln)-E-Propenoate] | 22000 | 7100 | 9300 | 10 | > 100 | 8 | > 10 | –
CCOC(=O)/C=C/[C@H](CCC(N)=O)NC(=O)[C@@H]1CCCCN1C(=O)[C@H](CC(C)C)NC(=O)OCc1ccccc1 [Compound 25, Ethyl-3-[CBZ-L-Leu-L-Pip-L-Gln]-E-Propenoate] | 1470 | 1280 | 770 | 14 | > 320 | – | > 23 | –
CCOC(=O)/C=C/C(CCC(N)=O)NC(=O)[C@@H]1CCc2ncc(N(C(=O)SC3CCCC3)C(=O)SC3CCCC3)c(=O)n21 (stereo partly shown) [Compound 50] | 14000 | – | – | 3.2 | > 100 | – | > 31 | –
CCOC(=O)/C=C/C(CCC(N)=O)NC(=O)[C@@H]1CCc2ncc(NC(=O)SC3CCCC3)c(=O)n21 (stereo partly shown) [Compound 51] | 43900 | – | – | 12.6 | > 100 | – | > 8 | –
CCOC(=O)/C=C/C(CCC(N)=O)NC(=O)[C@@H]1CCc2ncc(NC(=O)SCC)c(=O)n21 (stereo partly shown) [Compound 52] | 31100 | – | – | 32 | > 100 | – | > 3 | –
CCOC(=O)/C=C/C(CCC(N)=O)NC(=O)[C@H](Cc1ccccc1)N1CC[C@H](NC(=O)OCc2ccccc2)C1=O (stereo partly shown) [Compound 53] | 242 | – | – | 4.5 | > 100 | – | > 22 | –
CCOC(=O)/C=C/C(CCC(N)=O)NC(=O)[C@H](Cc1ccccc1)N1CC[C@@H](NC(=O)SC2CCCCC2)C1=O (stereo partly shown) [Compound 54] | – | – | – | 17.8 | > 100 | – | > 6 | 55
CCOC(=O)/C=C/C(CCC(N)=O)NC(=O)[C@H](Cc1ccccc1)N1CC[C@@H](NC(=O)OCc2ccccc2)C1=O (stereo partly shown) [Compound 55] | – | – | – | 50 | > 100 | – | > 2 | 20
CC(C)C[C@H](NC(=O)SC1CCCC1)C(=O)N(C)[C@@H](Cc1ccccc1)C(=O)N[C@H](/C=C/C(=O)OCc1ccccc1)CCC(N)=O [Compound 56] | 15400 | – | – | 1.6 | 20 | – | 13 | –
CCCOC(=O)/C=C/[C@H](CCC(N)=O)NC(=O)[C@H](Cc1ccccc1)N(C)C(=O)[C@H](CC(C)C)NC(=O)SC1CCCC1 [Compound 57] | 13500 | – | – | 0.56 | 50 | – | 89 | –
COCCOC(=O)/C=C/[C@H](CCC(N)=O)NC(=O)[C@H](Cc1ccccc1)N(C)C(=O)[C@H](CC(C)C)NC(=O)SC1CCCC1 [Compound 58] | 24300 | – | – | 0.56 | 63 | – | 113 | –
